Experimental data from patent publication US10301304B2, “Selective inhibitor of phosphatidylinositol 3-kinase-gamma” (VERTEX PHARMACEUTICALS INCORPORATED, priority 2013, dated 2019).

Assays:
[1] = system: CD40 induced colitis; experiment: CD40 induced colitis (IBD) model, body weight loss; type: in vivo, mouse
Method: The PI3Kγ inhibitor, Compound 1, was tested in a CD40 induced colitis model to determine its effect on disease course. The CD40 model of IBD is induced by injecting an anti-CD40 monoclonal antibody (agonist, i.e., activating antibody versus neutralizing antibody) into T and B cell deficient mice (Rag 1−/− mice) to induce both systemic and intestinal inflammation that leads to colitis and wasting disease via the innate immune pathway. (See, e.g., Immunity 25, 309-318, August 2006). Briefly, Rag1 knock-out mice were injected IP with the anti-CD40 monoclonal antibody FGK45. Starting on Day 0, mice were treated with PBS, vehicle or Compound 1 at 5 mg/kg b.i.d. or 10 mg/kg b.i.d. Compound 1 was administered IP for 7 days on a 10/14-hour b.i.d. dosing regimen. Compound 1 was formulated in 5% NMP/15% PEG-400/80% in a 0.5% HPMC-E50 solution in water. At study termination, serum and colon samples were collected at 2 hours following the last dose for drug concentration analysis. Body weights were measured daily during the study. Compound 1 concentrations were analyzed in the plasma samples collected 2 hours following the final dose at study termination. Concentrations were determined using a high performance liquid chromatography/tandem mass spectrometry (HPLC/MS/MS) method.

[2] = target: T1, CYP3A4 (Homo sapiens, UniProt P08684); experiment: Time-dependent inhibition of CYP3A4, IC50 shift assay; type: in vitro ADME; parameters: evaluated in human liver microsomes using the IC50 shift assay; from tissue; host or cells: human liver microsomes; conditions: CYP3A4, preincubation 0 and 30 minutes with/without NADPH, human liver microsomes
T1 sequence (P08684 whole entry): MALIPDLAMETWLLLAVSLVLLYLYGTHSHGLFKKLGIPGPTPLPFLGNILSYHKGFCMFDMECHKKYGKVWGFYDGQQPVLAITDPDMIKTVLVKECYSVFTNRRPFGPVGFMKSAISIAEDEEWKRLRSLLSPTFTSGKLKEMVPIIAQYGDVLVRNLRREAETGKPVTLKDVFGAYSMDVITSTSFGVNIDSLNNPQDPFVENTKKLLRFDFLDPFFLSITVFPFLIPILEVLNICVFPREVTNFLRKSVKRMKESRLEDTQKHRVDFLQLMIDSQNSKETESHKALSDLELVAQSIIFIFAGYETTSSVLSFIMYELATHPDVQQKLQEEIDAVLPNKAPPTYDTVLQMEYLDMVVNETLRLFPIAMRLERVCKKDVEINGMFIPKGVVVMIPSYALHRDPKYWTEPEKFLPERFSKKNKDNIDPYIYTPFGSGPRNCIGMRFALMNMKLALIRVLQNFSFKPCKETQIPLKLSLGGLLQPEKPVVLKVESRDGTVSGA
Method: Time-dependent inhibition of CYP3A4 by Compound 1 also was evaluated in human liver microsomes using the IC50 shift assay. In the study, Compound 1 at 0.1 to 50 μM was preincubated with human liver microsomes in the presence and absence of NADPH for 0 and 30 minutes. Incubations were then diluted 10-fold with buffer and the remaining CYP3A4 (testosterone-6-beta-hydroxylase) activity was measured over a 10 minute period. There was no significant change (IC50 shift=1) in the IC50 of Compound 1 in the presence or absence of NADPH.

[3] = Permeability in Caco-2 cell line; type: in vitro ADME; conditions: human
Method: (§1) The permeability of Compound 1 was evaluated using both Caco-2 and MadinDarby canine kidney (MDCK) wild-type cell lines. Cells were exposed to drug in buffer on the apical side (measuring permeability in the A-to-B direction) or basolateral side (measuring permeability in the B-to-A direction) and incubated at 37° C. for one hour. Permeability was high in the A-to-B direction in both the MDCK and Caco-2 cell lines (33 and 18×10^−6 cm/sec, respectively).

[4] = system: Caco-2; experiment: Permeability in Caco-2 cell line; type: in vitro ADME; conditions: Caco-2, 5 μM, A > B
Method: as §1

[5] = system: Purified human B cells; experiment: Human B Cell Proliferation Assay; type: cell-based
Excerpt: B cells are highly dependent on PI3Kδ for their development and activity. […] has an essential and non-redundant role in signaling via the B cell receptor (BCR) complex. Both IgM induced Ca+ influx and proliferation are attenuated in mice lacking PI3K-δ or with PI3K-δ inhibitors. PI3K-gamma has no role to play in any B cell activity. The specificity of the BCR complex for the […] to evaluate the extent of […] inhibition in cells. Purified human B cells are stimulated with anti-IgM in the presence of test compounds. Four days later cell viability/proliferation was measured using cell titer-glo to measure the ATP content of the cells in the well. Lack of or reduced proliferation is a measure of the extent of […].

[6] = target: T1, CYP3A4; experiment: Inhibition of CYP Enzymes in Human Liver Microsomes; type: in vitro ADME; parameters: evaluated in human liver microsomes using the IC50 shift assay; from tissue; host or cells: human liver microsomes
Method: Inhibition assays were conducted with selective CYP probes for each CYP enzyme at specific concentrations of substrate (close to its dissociation constant (Km) value). Compound 1 was a moderate inhibitor of CYP 1A2, 2B6 and 2C8; […]

[7] = system: CSF-1 stimulated pAkt in THP-1 cells (PI3Kα/β/δ); experiment: CSF-1 Stimulated pAkt in THP-1 Cells; type: cell-based; conditions: Homo sapiens; THP-1/CSF-1/pAkt, PI3K-alpha/beta/delta dependent; read-out: IC50 Avg +/− SD
Method: Growth factors, cytokines and other ligands of receptor tyrosine kinases, like CSF1, bind to their receptors leading to activation of the class IA PI3K signaling pathway. PI3K activation leads to generation of PIP3 and activation of downstream molecules like PDK-1 and Akt. Akt phosphorylation is a measure of PI3K activity in the cell. THP-1 cells (a human monocytic cell line) are starved overnight to deplete pAkt levels. Stimulation with CSF-1 for 5 minutes leads to PI3Kα/β/δ induced phoshorylation of Akt at the Threonine 308 and Serine 473 sites. Cells were fixed and stained for intracellular phosphoAkt (Ser 473) then analyzed on the BD FACSCalibur™ cytometer. This is a measure of cellular Class IA PI3K inhibition.

## Cc1cc(-c2cncc([C@@H](O)C(F)(F)F)c2)nc2c1C(=O)N(c1cnn(CC(F)F)c1)C2(C)C [Compound 1, (R)-6-(1-(2,2-difluoroethyl)-1H-pyrazol-4-yl)-4,7,7-trimethyl-2-(5-(2,2,2-trifluoro-1-hydroxyethyl)pyridin-3-yl)-6,7-dihydro-5H-pyrrolo[3,4-b]pyridin-5-one]
[1]; 5 mg/kg b.i.d. IP, *p<0.05 d3, **p<0.01 d4, vs vehicle
  body weight loss (FIG. 4): significantly inhibited
[1]; 10 mg/kg b.i.d. IP, ***p<0.001 d3-4, vs vehicle
  body weight loss (FIG. 4): significantly inhibited
[2]
  IC50 shift: 1
[3]; Caco-2, Caco-2, 5 μM, A > B
  Papp A→B at 1 h, 5 μM: 18 ×10⁻⁶ cm/s
  recovery at 1 h, 5 μM: 87%
[3]; Caco-2, Caco-2, 5 μM, B > A
  recovery at 1 h, 5 μM: 96%
[3]; Caco-2, 5 μM
  efflux ratio at 1 h, 5 μM: 1.9
[3]; Caco-2, 5 μM, B > A
  Papp B→A at 1 h, 5 μM: 60.7 ×10⁻⁶ cm/s
[4]
  Avg. Papp: 32.6 ×10⁻⁶ cm/s
[5]; B cell proliferation
  selectivity window over PI3K-δ: 11 fold
[5]; Homo sapiens, 96 h, B cell/IgM/Proliferation, four days, read-out: IC50 Avg +/− SD
  IC50: 3.05 ± 0.44 µM
[5]; summary
  selectivity over PI3K-delta in cell based assays: 12 fold
[6]; CYP3A4, 2.5 μM Midazolam
  IC50: 19 µM
[6]; CYP3A4, 50 μM Testosterone
  IC50: > 75 µM
[7]
  IC50: > 9.7 µM
